We go through two compounds from the NIST ThermoML archive (doi:10.1021/je0502804).

± gives the expanded uncertainty stated by the source.

The conditions of the data set: Crystal; visual observation.

Regarding `Clc1nc(Cl)c(Cl)c(Cl)c1Cl` [pentachloropyridine], the Normal melting temperature worked out at 124.00 ± 0.5 °C.

`Clc1cc(Cl)c(Cl)nc1Cl` [2,3,5,6-tetrachloropyridine]: the Normal melting temperature is 90.00 ± 0.5 °C.
